Reference: ChEMBL document CHEMBL5236560, “Structure-Based Discovery of Potent CARM1 Inhibitors for Solid Tumor and Cancer Immunology Therapy” (J Med Chem, 2021)

Tests used:
[1] = target: T1, Histone-arginine methyltransferase CARM1 (Homo sapiens, UniProt Q86X55); experiment: Inhibition of human CARM1 (140 to 480 residues) incubated for 15 mins measured after 60 min by AlphaLISA assay
T1 sequence (Q86X55 whole entry): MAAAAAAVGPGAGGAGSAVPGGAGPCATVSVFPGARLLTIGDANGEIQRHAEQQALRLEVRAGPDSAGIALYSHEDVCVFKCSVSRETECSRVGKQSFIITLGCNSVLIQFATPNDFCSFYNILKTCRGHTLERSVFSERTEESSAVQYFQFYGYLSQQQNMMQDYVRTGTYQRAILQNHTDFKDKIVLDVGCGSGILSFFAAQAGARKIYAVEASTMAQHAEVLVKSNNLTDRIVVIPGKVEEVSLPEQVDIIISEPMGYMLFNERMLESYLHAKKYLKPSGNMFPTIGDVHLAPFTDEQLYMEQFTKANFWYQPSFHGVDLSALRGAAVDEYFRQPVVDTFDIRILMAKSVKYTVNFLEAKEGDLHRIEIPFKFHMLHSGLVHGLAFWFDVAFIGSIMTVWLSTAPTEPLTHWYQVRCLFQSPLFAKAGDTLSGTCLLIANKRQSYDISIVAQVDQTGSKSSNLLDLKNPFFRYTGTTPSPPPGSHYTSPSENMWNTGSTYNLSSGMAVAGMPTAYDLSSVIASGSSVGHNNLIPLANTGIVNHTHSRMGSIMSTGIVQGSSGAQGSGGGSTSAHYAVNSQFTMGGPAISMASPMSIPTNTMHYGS

A-375 [2] = experiment: Antiproliferative activity against human A-375 cells assessed as cell growth inhibition incubated for 6 days by SRB assay; assay type: functional, cell-based; conditions: A-375, 144 h
BT-549 = experiment: Antiproliferative activity against human BT-549 cells assessed as cell growth inhibition incubated for 6 days by SRB assay; assay type: functional, cell-based; conditions: BT-549, 144 h
[3] = Metabolic stability in monkey liver microsomes assessed as parent compound remaining measured after 2 hrs; assay type: ADME, Macaca mulatta, Microsome; conditions: rhesus monkey, read-out: Stability
[4] = Metabolic stability in rat liver microsomes assessed as parent compound remaining measured after 2 hrs; assay type: ADME, Microsome; conditions: read-out: Stability
[5] = AUClast in ICR mouse at 10 mg/kg, po measured upto 24 hrs by UPLC analysis; assay type: ADME, organism-based; set-up: dose 10 mg/kg, time < 24 hrs, route po; conditions: in vivo
[6] = Cmax in ICR mouse at 10 mg/kg, po measured upto 24 hrs by UPLC analysis; assay type: ADME, organism-based; set-up: time < 24 hrs, dose 10 mg/kg, route po; conditions: in vivo
[7] = Metabolic stability in human liver microsomes assessed as parent compound remaining measured after 2 hrs; assay type: ADME, Microsome; conditions: read-out: Stability
[8] = Metabolic stability in dog liver microsomes assessed as parent compound remaining measured after 2 hrs; assay type: ADME, Canis lupus familiaris, Microsome; conditions: read-out: Stability
[9] = Tmax in ICR mouse at 10 mg/kg, po measured upto 24 hrs by UPLC analysis; assay type: ADME, organism-based; conditions: in vivo
[10] = AUC(0 to infinity) in ICR mouse at 10 mg/kg, po measured upto 24 hrs by UPLC analysis; assay type: ADME, organism-based; set-up: dose 10 mg/kg, time < 24 hrs, route po; conditions: in vivo
[11] = Half life in ICR mouse at 10 mg/kg, po measured upto 24 hrs by UPLC analysis; assay type: ADME, organism-based; conditions: in vivo
[12] = Metabolic stability in mouse liver microsomes assessed as parent compound remaining measured after 2 hrs; assay type: ADME, Microsome; conditions: read-out: Stability
A-375 [13] = experiment: Antitumor activity against human A-375 cells xenografted in po dosed nude mouse assessed as tumor growth inhibition at 75 mg/kg administered once daily measured after 21 days relative to control; assay type: functional; conditions: A-375, 504 h, time 21 day, read-out: TGI
A-375 [14] = experiment: Antitumor activity against human A-375 cells xenografted in po dosed nude mouse assessed as tumor growth inhibition at 100 mg/kg administered once daily measured after 21 days relative to control; assay type: functional; conditions: A-375, 504 h, time 21 day, read-out: TGI

| SMILES | IC50 [1] [nM] | IC50 (A-375 [2]) [µM] | IC50 (BT-549) [µM] | also measured |
| --- | --- | --- | --- | --- |
| CNCCNCc1cccc(-c2nc(Nc3ccccc3)c(C)c(NC3CCOCC3)n2)c1 | 187 | – | – | – |
| CNCCNCc1cccc(-c2nc(NC3CCOCC3)c(C)c(Oc3ccccc3)n2)c1 | 60 | – | – | – |
| CNCCNCc1cccc(-c2nc(NCc3ccccc3)c(C)c(NC3CCOCC3)n2)c1 | 31.5 | – | – | – |
| CNCCNCc1cccc(-c2nc(-c3c(C)noc3C)c(C)c(N3CCN(S(C)(=O)=O)CC3)n2)c1 | 0.78 | > 50 | > 50 | – |
| CNCCNCc1cccc(-c2nc(-c3c(C)noc3C)c(C)c(N3CCS(=O)(=O)CC3)n2)c1 | 2.46 | > 50 | > 50 | – |
| CNCCNCc1cccc(-c2nc(NC3CCOCC3)c(C)c(OCc3ccccc3)n2)c1 | 33.6 | – | – | – |
| Cc1noc(C)c1-c1nc(-c2cccc(CNC(=O)[C@@H](N)CO)c2)nc(NC2CCOCC2)c1C | > 1000 | – | – | – |
| Cc1c(NC2CCOCC2)nc(-c2cccc(CNC(=O)[C@H](C)N)c2)nc1-c1ccccc1 | > 1000 | – | – | – |
| CNCCNCc1cccc(-c2nc(NC3CCOCC3)c(C)c(-c3cc4ccccc4s3)n2)c1 | 21.4 | – | – | – |
| CNCCNCc1cccc(-c2nc(NC3CCOCC3)c(C)c(-c3ccnn3C)n2)c1 | 2.94 | > 50 | > 50 | – |
| Cc1c(NC2CCOCC2)nc(-c2cccc(CNC(=O)[C@@H](N)CO)c2)nc1-c1ccncc1 | > 1000 | – | – | – |
| Cc1noc(C)c1-c1nc(-c2cccc(CNC(=O)[C@H](C)N)c2)nc(NC2CCOCC2)c1C | > 1000 | – | – | – |
| CNCCNCc1cccc(-c2nc(-c3c(C)noc3C)c(C)c(N3Cc4ccccc4C3)n2)c1 | 10.1 | – | – | – |
| CNCCNCc1cccc(-c2nc(Cl)c(C)c(NC3CCOCC3)n2)c1 | 29.5 | – | – | – |
| CNCCNCc1cccc(-c2nc(NC3CCOCC3)c(C)c(-c3cn(C)nc3C)n2)c1 | 3.78 | > 50 | > 50 | – |
| CNCCNCc1cccc(-c2nc(NC3CCOCC3)c(C)c(-c3cccnc3)n2)c1 | 0.92 | 45.5 | > 50 | – |
| CNCCNCc1cccc(-c2nc(NC3CCOCC3)c(C)c(-c3ccc(OC)cc3)n2)c1 | 26.9 | – | – | – |
| CNCCNCc1cccc(-c2nc(NC3CCOCC3)c(C)c(-c3c(C)noc3C)n2)c1 | 1.63 | > 50 | > 50 | remaining at 2 h [3]: 86.1%; remaining at 2 h [4]: 93.4%; AUC(0-t) at 24 h [5]: 199 ng·h/mL; Cmax [6]: 95.4 ng/mL; remaining at 2 h [7]: 93.1%; remaining at 2 h [8]: 85.5%; Tmax [9]: 1.33 h; AUC(0-inf) [10]: 209 ng·h/mL; half-life [11]: 394 min; remaining at 2 h [12]: 90% |
| CNCCNCc1cccc(-c2nc(NC3CCOCC3)c(C)c(-c3cccc4ncccc34)n2)c1 | 6.07 | – | – | – |
| CNCCNCc1cccc(-c2nc(-c3c(C)noc3C)c(C)c(N3CCCCC3)n2)c1 | 21.7 | – | – | – |
| CNCCNCc1cccc(-c2nc(NC3CCOCC3)c(C)c(-c3c(C)nn(C)c3C)n2)c1 | 0.65 | > 50 | > 50 | – |

| SMILES | IC50 [1] [nM] | IC50 (A-375 [2]) [µM] | IC50 (BT-549) [µM] | also measured |
| --- | --- | --- | --- | --- |
| CNCCNCc1cccc(-c2nc(NC3CCOCC3)c(C)c(-c3ccncc3)n2)c1 | 3.68 | 44.3 | > 50 | – |
| CNCCNCc1cccc(-c2nc(NC3CCOCC3)c(C)c(-c3cccc4[nH]ccc34)n2)c1 | 11.8 | – | – | – |
| CNCCNCc1cccc(-c2nc(Nc3ccccc3)c(C)c(-c3cccnc3)n2)c1 | 11.6 | 10.9 | 14.1 | – |
| Cc1c(NC2CCOCC2)nc(-c2cccc(CNC(=O)[C@@H](N)CO)c2)nc1-c1ccccc1 | > 1000 | – | – | – |
| CNCCNCc1cccc(-c2nc(NC3CCN(S(C)(=O)=O)CC3)c(C)c(-c3c(C)noc3C)n2)c1 | 4.24 | > 50 | > 50 | – |
| CNCCNCc1cccc(-c2nc(-c3c(C)noc3C)c(C)c(N3CCN(C)CC3)n2)c1 | 13.1 | – | – | – |
| CNCCNCc1cccc(-c2nc(NC3CCOCC3)c(C)c(-c3ccccn3)n2)c1 | 6.15 | – | – | – |
| CNCCNCc1cccc(-c2nc(-c3c(C)noc3C)c(C)c(N3CCN(C(C)=O)CC3)n2)c1 | 11.5 | – | – | – |
| CNCCNCc1cccc(-c2nc(NC3CCOCC3)c(C)c(-c3ccnc4[nH]ccc34)n2)c1 | 3.84 | 18.2 | 25.2 | – |
| CNCCNCc1cccc(-c2nc(NC3CCOCC3)c(C)c(-c3ccc(O)cc3)n2)c1 | 2.3 | 24.1 | 23.7 | – |
| CNCCNCc1cccc(-c2nc(NC3CCOCC3)c(C)c(-c3cccc4cnccc34)n2)c1 | 4.37 | 12.7 | 32 | – |
| CNCCNCc1cccc(-c2nc(Nc3ccccc3)c(C)c(-c3c(C)nn(C)c3C)n2)c1 | 19.6 | 6.7 | 8.2 | – |
| CNCCNCc1cccc(-c2nc(-c3c(C)noc3C)c(C)c(N3Cc4cccnc4C3)n2)c1 | 1.13 | 8.2 | 11.9 | – |
| CNCCNCc1cccc(-c2nc(NC3CCOCC3)c(C)c(-c3ccc(S(C)(=O)=O)cc3)n2)c1 | 5.2 | – | – | – |
| CNCCNCc1cccc(-c2nc(-c3c(C)noc3C)c(C)c(N3CCOCC3)n2)c1 | 1.1 | 24.7 | > 50 | – |
| CNCCNCc1cccc(-c2nc(NC3CCOCC3)c(C)c(-c3cncnc3)n2)c1 | 4.29 | > 50 | > 50 | – |
| CNCCNCc1cccc(-c2nc(NC3CCOCC3)c(C)c(-c3ccccc3)n2)c1 | 10.2 | – | – | – |
| CNCCNCc1cccc(-c2nc(NC3CCOCC3)c(C)c(-c3ccc(OC(F)(F)F)cc3)n2)c1 | 5.13 | – | – | – |
| CNCCNCc1cccc(-c2nc(NC3CCOCC3)c(C)c(-c3cc4cccc(OC)c4[nH]3)n2)c1 | 29.4 | – | – | – |
| CNC[C@@H](O)COc1ccc(Cl)c(-c2nc(-c3c(C)noc3C)c(C)c(N3CC4(CCN(C(=O)OC)CC4)C3)n2)c1 | – | – | – | inhibition in vivo at 75 mg/kg (A-375 [13]): 24%; inhibition in vivo at 100 mg/kg (A-375 [14]): 82.6% |
| Cc1c(NC2CCOCC2)nc(-c2cccc(CNC(=O)[C@H](C)N)c2)nc1-c1ccncc1 | > 1000 | – | – | – |
